Assay results published in ChEMBL document CHEMBL3046407, “Toxicity of monoterpenes against larvae and adults of Colorado potato beetle, Leptinotarsa decemlineata Say (Coleoptera: Chrysomelidae)” (2007).

Tests used:
[1] = tested on: Leptinotarsa decemlineata; test: Insecticidal activity against adult Leptinotarsa decemlineata infested potato leaves assessed as mortality at 0.5 mg after 24 hr relative to control; assay type: functional
[2] = tested on: Leptinotarsa decemlineata; test: Insecticidal activity against adult Leptinotarsa decemlineata infested potato leaves assessed as mortality at 1 mg after 24 hr relative to control; assay type: functional
[3] = tested on: Leptinotarsa decemlineata; test: Insecticidal activity against first-instar larval stage of Leptinotarsa decemlineata infested potato leaves assessed as mortality at 1 mg after 24 hr relative to control; assay type: functional
[4] = tested on: Leptinotarsa decemlineata; assay type: functional, Instar larval stage
[5] = tested on: Leptinotarsa decemlineata; test: Insecticidal activity against first-instar larval stage of Leptinotarsa decemlineata infested potato leaves assessed as mortality at 0.5 mg after 48 hr relative to control; assay type: functional
[6] = tested on: Leptinotarsa decemlineata; test: Insecticidal activity against adult Leptinotarsa decemlineata infested potato leaves assessed as mortality at 0.5 mg after 48 hr relative to control; assay type: functional
[7] = tested on: Leptinotarsa decemlineata; test: Insecticidal activity against first-instar larval stage of Leptinotarsa decemlineata infested potato leaves assessed as mortality at 1 mg after 96 hr relative to control; assay type: functional
[8] = tested on: Leptinotarsa decemlineata; test: Insecticidal activity against first-instar larval stage of Leptinotarsa decemlineata infested potato leaves assessed as mortality at 0.5 mg after 24 hr relative to control; assay type: functional
[9] = tested on: Leptinotarsa decemlineata; test: Insecticidal activity against third-instar larval stage of Leptinotarsa decemlineata infested potato leaves assessed as mortality at 1 mg after 12 hr relative to control; assay type: functional
[10] = tested on: Leptinotarsa decemlineata; assay type: functional, Instar larval stage; remark: listed apart in the source
[11] = tested on: Leptinotarsa decemlineata; assay type: functional, Instar larval stage; remark: listed apart in the source
[12] = tested on: Leptinotarsa decemlineata; test: Insecticidal activity against adult Leptinotarsa decemlineata infested potato leaves assessed as mortality at 1 mg after 12 hr relative to control; assay type: functional
[13] = tested on: Leptinotarsa decemlineata; test: Insecticidal activity against second-instar larval stage of Leptinotarsa decemlineata infested potato leaves assessed as mortality at 1 mg after 12 hr relative to control; assay type: functional
[14] = tested on: Leptinotarsa decemlineata; test: Insecticidal activity against first-instar larval stage of Leptinotarsa decemlineata infested potato leaves assessed as mortality at 1 mg after 12 hr relative to control; assay type: functional
[15] = tested on: Leptinotarsa decemlineata; test: Insecticidal activity against adult Leptinotarsa decemlineata infested potato leaves assessed as mortality at 1 mg after 48 hr relative to control; assay type: functional
[16] = tested on: Leptinotarsa decemlineata; assay type: functional, Instar larval stage; remark: listed apart in the source
[17] = tested on: Leptinotarsa decemlineata; test: Insecticidal activity against second-instar larval stage of Leptinotarsa decemlineata infested potato leaves assessed as mortality at 0.5 mg after 12 hr relative to control; assay type: functional
[18] = tested on: Leptinotarsa decemlineata; test: Insecticidal activity against adult Leptinotarsa decemlineata infested potato leaves assessed as mortality at 0.5 mg after 12 hr relative to control; assay type: functional
[19] = tested on: Leptinotarsa decemlineata; test: Insecticidal activity against first-instar larval stage of Leptinotarsa decemlineata infested potato leaves assessed as mortality at 1 mg after 48 hr relative to control; assay type: functional
[20] = tested on: Leptinotarsa decemlineata; assay type: functional, Instar larval stage; remark: listed apart in the source
[21] = tested on: Leptinotarsa decemlineata; assay type: functional, Instar larval stage; remark: listed apart in the source
[22] = tested on: Leptinotarsa decemlineata; assay type: functional, Instar larval stage; remark: listed apart in the source
[23] = tested on: Leptinotarsa decemlineata; assay type: functional, Instar larval stage; remark: listed apart in the source
[24] = tested on: Leptinotarsa decemlineata; test: Insecticidal activity against third-instar larval stage of Leptinotarsa decemlineata infested potato leaves assessed as mortality at 0.5 mg after 24 hr relative to control; assay type: functional
[25] = tested on: Leptinotarsa decemlineata; test: Insecticidal activity against third-instar larval stage of Leptinotarsa decemlineata infested potato leaves assessed as mortality at 1 mg after 24 hr relative to control; assay type: functional
[26] = tested on: Leptinotarsa decemlineata; test: Insecticidal activity against first-instar larval stage of Leptinotarsa decemlineata infested potato leaves assessed as mortality at 0.5 mg after 96 hr relative to control; assay type: functional
[27] = tested on: Leptinotarsa decemlineata; test: Insecticidal activity against adult Leptinotarsa decemlineata infested potato leaves assessed as mortality at 0.5 mg after 96 hr relative to control; assay type: functional
[28] = tested on: Leptinotarsa decemlineata; assay type: functional, Instar larval stage; remark: listed apart in the source
[29] = tested on: Leptinotarsa decemlineata; assay type: functional, Instar larval stage; remark: listed apart in the source
[30] = tested on: Leptinotarsa decemlineata; test: Insecticidal activity against adult Leptinotarsa decemlineata infested potato leaves assessed as mortality at 1 mg after 96 hr relative to control; assay type: functional
[31] = tested on: Leptinotarsa decemlineata; test: Insecticidal activity against third-instar larval stage of Leptinotarsa decemlineata infested potato leaves assessed as mortality at 0.5 mg after 12 hr relative to control; assay type: functional
[32] = tested on: Leptinotarsa decemlineata; test: Insecticidal activity against first-instar larval stage of Leptinotarsa decemlineata infested potato leaves assessed as mortality at 0.5 mg after 12 hr relative to control; assay type: functional

## CC1(C)[C@H](/C=C(\Cl)C(F)(F)F)[C@@H]1C(=O)O[C@@H](C#N)c1cccc(Oc2ccccc2)c1 (relative stereo) [REL-LAMBDA CYHALOTHRIN]
[1]
  mortality: 100%
[2]
  mortality: 100%
[3]
  mortality: 90%
[4]
  mortality: 100%
[5]
  mortality: 100%
[6]
  mortality: 100%
[7]
  mortality: 100%
[8]
  mortality: 93.3%
[9]
  mortality: 86.7%
[10]
  mortality: 100%
[11]
  mortality: 100%
[12]
  mortality: 90%
[13]
  mortality: 80%
[14]
  mortality: 60%
[15]
  mortality: 100%
[16]
  mortality: 93.3%
[17]
  mortality: 73.3%
[18]
  mortality: 100%
[19]
  mortality: 100%
[20]
  mortality: 100%
[21]
  mortality: 86.7%
[22]
  mortality: 100%
[23]
  mortality: 93.3%
[24]
  mortality: 86.7%
[25]
  mortality: 90%
[26]
  mortality: 100%
[27]
  mortality: 100%
[28]
  mortality: 100%
[29]
  mortality: 100%
[30]
  mortality: 100%
[31]
  mortality: 73.3%
[32]
  mortality: 63.3%
